Assay results from the supplement of paper PMC6045584.
± gives the standard deviation of the averaged measurements.

How the values were obtained:
SORAFENIB = compound: CNC(=O)c1cc(Oc2ccc(NC(=O)Nc3ccc(Cl)c(C(F)(F)F)c3)cc2)ccn1 [SORAFENIB]; assay: surviving fraction relative to DMSO-only wells; higher = less growth inhibition; details: exposure time: 5 days
How it was run: (§1)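 Inhibitors at 0.5, 1, 5, 10, 50, 100, 500 and 1000 nM were applied continuously for five days to tumour cell lines seeded in log phase at 250–500 cells per well in 384-well plates 24 hours earlier. Viability was measured by CellTiter-Glo luminescence and expressed as surviving fraction relative to the median of DMSO-only wells. Luminescence was taken after 10 minutes at room temperature.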

[1] = compound: CCn1c(C(=O)N(C2CC2)C2CC2)cc2c3c(ncn3C)c(Nc3cc(C)n(C)n3)nc21; assay: as above; details: exposure time: 5 days
How it was run: as §1

Test System	surviving fraction (SORAFENIB; 0.5 nM)	surviving fraction (SORAFENIB; 5 nM)	surviving fraction (SORAFENIB; 10 nM)	surviving fraction (SORAFENIB; 50 nM)	surviving fraction (SORAFENIB; 100 nM)	surviving fraction (SORAFENIB; 500 nM)	surviving fraction ([1]; 0.5 nM)	surviving fraction ([1]; 1 nM)	surviving fraction ([1]; 5 nM)	surviving fraction ([1]; 10 nM)	surviving fraction ([1]; 50 nM)	surviving fraction ([1]; 100 nM)	surviving fraction ([1]; 500 nM)	surviving fraction ([1]; 1000 nM)	surviving fraction (SORAFENIB; 1 nM)	surviving fraction (SORAFENIB; 1000 nM)
22RV1 PROSTATE	0.995 ± 0.029	0.974 ± 0.014	0.955 ± 0.025	1.09 ± 0.034	1.09 ± 0.064	1.11 ± 0.043	0.972 ± 0.044	1.03 ± 0.037	0.975 ± 0.019	1.02 ± 0.017	1.07 ± 0.031	1.03 ± 0.079	1.07 ± 0.018	1.08 ± 0.064		
93VU HEADNECK	0.961 ± 0.081	1.12 ± 0.051	1.19 ± 0.11	1.22 ± 0.1	1.17 ± 0.07		0.879 ± 0.12	0.834 ± 0.051	1.05 ± 0.031	0.976 ± 0.029	1.06 ± 0.042	1.04 ± 0.1	0.832 ± 0.027	0.775 ± 0.11	0.987 ± 0.091	
143B BONE			1.042 ± 0.0078	1.03 ± 0.06	1.02 ± 0.042		1 ± 0.0057	1 ± 0.03	1.02 ± 0.012	0.9945 ± 0.005	1.04 ± 0.025	1.02 ± 0.02	1.01 ± 0.026	1.023 ± 0.0099	1.02 ± 0.018	0.962 ± 0.012
A549 LUNG	0.994 ± 0.032	1.01 ± 0.027			1.12 ± 0.043	1.12 ± 0.055	0.956 ± 0.034	0.941 ± 0.018	0.949 ± 0.02	0.963 ± 0.022	0.958 ± 0.057	1.024 ± 0.0095	1 ± 0.084	1.02 ± 0.03	0.949 ± 0.017	1.04 ± 0.02
ASKA SYNOVIAL	1.12 ± 0.019	1.18 ± 0.024	1.12 ± 0.028	1.15 ± 0.031	1.15 ± 0.014	1.01 ± 0.023	1.06 ± 0.071	0.998 ± 0.1	1.06 ± 0.064	1.05 ± 0.062	1.15 ± 0.092	1.11 ± 0.063	1.07 ± 0.057	0.953 ± 0.051	1.07 ± 0.063	0.954 ± 0.045
BT20 BREAST		1.07 ± 0.23	1.07 ± 0.23	1.01 ± 0.33	0.951 ± 0.3		1.07 ± 0.032	0.999 ± 0.25	1.09 ± 0.24	1 ± 0.2	1.1 ± 0.26	1.07 ± 0.16	1.16 ± 0.22	1.24 ± 0.18	1.04 ± 0.26	
BT549 BREAST	1.2 ± 0.1	1.037 ± 0.01	1.15 ± 0.068	1.07 ± 0.081		1.09 ± 0.11	1.14 ± 0.22	1 ± 0.046	1.06 ± 0.11	1.18 ± 0.12	0.934 ± 0.19	0.965 ± 0.2	1.04 ± 0.1	0.887 ± 0.13	1.11 ± 0.17	1.11 ± 0.16
C33A CERVIX		1.08 ± 0.084	1.07 ± 0.075	1.18 ± 0.17	1.23 ± 0.17	1.21 ± 0.069	0.809 ± 0.035	0.801 ± 0.11	0.926 ± 0.082	1.03 ± 0.19	0.895 ± 0.049	1.08 ± 0.15	0.768 ± 0.025	0.657 ± 0.1	1.1 ± 0.17	1.19 ± 0.13
CADOES1 SOFT TISSUE	1.02 ± 0.062	0.862 ± 0.035		0.972 ± 0.15	0.947 ± 0.1		0.958 ± 0.066	0.961 ± 0.061	0.905 ± 0.13	0.92 ± 0.068	0.889 ± 0.16	0.94 ± 0.026	0.913 ± 0.033	0.988 ± 0.091		0.603 ± 0.19
CAL51 BREAST	0.979 ± 0.04	0.9937 ± 0.0025	1.01 ± 0.022	1.12 ± 0.046	1.1 ± 0.05	1.02 ± 0.034	0.972 ± 0.049	0.985 ± 0.034	0.98 ± 0.036	0.976 ± 0.043	1.02 ± 0.043	1.06 ± 0.031	1.02 ± 0.034	0.99 ± 0.015	0.991 ± 0.014	0.977 ± 0.041
CAL72 BONE	1.06 ± 0.031	1.09 ± 0.026	1.05 ± 0.048	1.13 ± 0.039	1.121 ± 0.0063	1.09 ± 0.041	1.1 ± 0.015	1.11 ± 0.035	1.06 ± 0.019	1.035 ± 0.005	1.12 ± 0.022	1.16 ± 0.059	1.13 ± 0.028	1.1 ± 0.035		1.08 ± 0.042
CAL120 BREAST	0.959 ± 0.026	0.931 ± 0.025		1.02 ± 0.014	1.01 ± 0.038	0.973 ± 0.023	0.876 ± 0.038	0.911 ± 0.018	0.937 ± 0.036	0.924 ± 0.056	0.962 ± 0.0098	0.94 ± 0.036	0.941 ± 0.026	0.897 ± 0.012	0.9315 ± 0.0074	0.942 ± 0.032
CASKI CERVIX	0.895 ± 0.04	0.983 ± 0.044	0.969 ± 0.019	1.13 ± 0.077	1.13 ± 0.075	1.05 ± 0.019	0.85 ± 0.039	0.932 ± 0.015	0.972 ± 0.055	0.946 ± 0.073	0.994 ± 0.049	1 ± 0.062	0.985 ± 0.029	1.04 ± 0.06	0.94 ± 0.054	0.865 ± 0.045
CHLA90 AUTONOMIC GANGLIA	0.992 ± 0.05		0.996 ± 0.037	1.13 ± 0.037	1.27 ± 0.062	1.38 ± 0.1	0.986 ± 0.026	0.944 ± 0.037	0.905 ± 0.032	0.918 ± 0.095	0.961 ± 0.011	0.975 ± 0.003	0.945 ± 0.065	0.968 ± 0.026	1.04 ± 0.039	1.5 ± 0.12
CME SYNOVIAL	1.23 ± 0.11	1.28 ± 0.072	1.38 ± 0.075	1.28 ± 0.058	1.4 ± 0.12	1.27 ± 0.073	1.27 ± 0.18	1.22 ± 0.11	1.29 ± 0.15	1.22 ± 0.064	1.294 ± 0.004	1.22 ± 0.072	1.21 ± 0.11	1.09 ± 0.06	1.2 ± 0.07	1.15 ± 0.025
COLO320DM LARGE INTESTINE	1.13 ± 0.042	1.15 ± 0.029	1.07 ± 0.075	1.21 ± 0.14	1.11 ± 0.013	1.18 ± 0.2	1.03 ± 0.053	1.11 ± 0.0081	1.15 ± 0.1	1.08 ± 0.11	1.17 ± 0.14	1.18 ± 0.095	1.14 ± 0.063	1.27 ± 0.22	1.06 ± 0.04	0.968 ± 0.074
DU4475 BREAST	1.07 ± 0.35	0.927 ± 0.29	0.999 ± 0.18	0.819 ± 0.25	0.939 ± 0.46	0.906 ± 0.31	0.875 ± 0.26	0.938 ± 0.15	0.819 ± 0.24	0.887 ± 0.2	0.713 ± 0.23	0.675 ± 0.29	0.91 ± 0.46	1.05 ± 0.35	1.05 ± 0.2	0.769 ± 0.32
H23 LUNG	1.01 ± 0.03	1.06 ± 0.061	1.06 ± 0.033	1.32 ± 0.095	1.33 ± 0.031	1.38 ± 0.11	0.966 ± 0.048	0.982 ± 0.013	0.972 ± 0.025	0.981 ± 0.03	0.99 ± 0.015	0.981 ± 0.025	0.894 ± 0.021	0.903 ± 0.054		1.27 ± 0.073
HCC78 LUNG	0.864 ± 0.17		0.877 ± 0.085	1.02 ± 0.053		0.509 ± 0.068	0.942 ± 0.17	0.672 ± 0.3	0.745 ± 0.26	0.888 ± 0.17	0.774 ± 0.21	0.914 ± 0.089	0.707 ± 0.16	0.834 ± 0.2	0.826 ± 0.023	0.435 ± 0.098
HCC202 BREAST	1.23 ± 0.35	1.11 ± 0.18	1.02 ± 0.031	0.987 ± 0.055		0.897 ± 0.13	1.32 ± 0.046	1.04 ± 0.17	1.16 ± 0.22	1.38 ± 0.23	1.4 ± 0.19	1.23 ± 0.057	1.35 ± 0.36	1.08 ± 0.062		0.685 ± 0.15
HCC1395 BREAST	1.11 ± 0.057	1.27 ± 0.049	1.16 ± 0.17	1.26 ± 0.034	1.24 ± 0.15	1.18 ± 0.21	1.15 ± 0.067	1.06 ± 0.14	1.25 ± 0.057	1.16 ± 0.1	1.216 ± 0.0056	1.12 ± 0.21	0.973 ± 0.13	1.1 ± 0.16		1.12 ± 0.048
HCC1806 BREAST	0.985 ± 0.032	1.03 ± 0.059	0.771 ± 0.66	1.14 ± 0.099	1.05 ± 0.14	1 ± 0.11	0.959 ± 0.2	0.993 ± 0.095	1.13 ± 0.043	1.04 ± 0.089	1.02 ± 0.11	1.21 ± 0.1	0.982 ± 0.078	0.885 ± 0.12	0.78 ± 0.45	0.888 ± 0.081
